The source made the active and inactive calls.
What was measured:
Leucine aminopeptidase = molecular target: T1, Leucine aminopeptidase (Plasmodium falciparum 3D7, UniProt Q8IL11); test: P. falciparum M17LAP inhibitors, primary screen, biochemical, fluorogenic H-Leu-NHMec substrate, 1536-well (AID 1619); format: functional
T1 sequence (Q8IL11 whole entry): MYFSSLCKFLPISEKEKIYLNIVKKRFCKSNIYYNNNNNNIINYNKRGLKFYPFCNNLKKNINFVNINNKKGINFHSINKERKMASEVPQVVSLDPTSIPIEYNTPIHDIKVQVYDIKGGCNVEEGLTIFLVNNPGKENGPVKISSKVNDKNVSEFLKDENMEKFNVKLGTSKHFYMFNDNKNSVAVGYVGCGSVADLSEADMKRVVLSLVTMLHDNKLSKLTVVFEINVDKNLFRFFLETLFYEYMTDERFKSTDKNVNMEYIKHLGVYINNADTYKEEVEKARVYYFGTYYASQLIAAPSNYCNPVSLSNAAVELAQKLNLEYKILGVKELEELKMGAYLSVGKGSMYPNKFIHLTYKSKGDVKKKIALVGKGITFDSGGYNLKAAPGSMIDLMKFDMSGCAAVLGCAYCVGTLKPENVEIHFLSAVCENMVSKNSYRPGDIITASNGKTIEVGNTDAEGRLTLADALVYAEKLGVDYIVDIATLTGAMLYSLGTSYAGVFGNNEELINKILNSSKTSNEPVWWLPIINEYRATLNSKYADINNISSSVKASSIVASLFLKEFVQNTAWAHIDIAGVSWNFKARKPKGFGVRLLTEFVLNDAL

[1] = molecular target: T2, Calpain-2 catalytic subunit (Sus scrofa, UniProt P43367); test: pig calpain II inhibitor potency, dose response, biochemical, fluorogenic peptide substrate (AID 1420); format: functional
T2 sequence (P43367 whole entry): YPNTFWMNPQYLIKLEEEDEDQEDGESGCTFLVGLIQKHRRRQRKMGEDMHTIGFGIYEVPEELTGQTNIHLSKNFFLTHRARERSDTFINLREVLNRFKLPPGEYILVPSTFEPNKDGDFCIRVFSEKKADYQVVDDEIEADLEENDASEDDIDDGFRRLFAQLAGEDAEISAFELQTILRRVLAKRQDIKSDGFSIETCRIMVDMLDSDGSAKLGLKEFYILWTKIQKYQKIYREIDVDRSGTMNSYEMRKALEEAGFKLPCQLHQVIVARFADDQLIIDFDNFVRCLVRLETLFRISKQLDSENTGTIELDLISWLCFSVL

Beta-lactamase [2] = molecular target: Beta-lactamase (Salmonella choleraesuis (strain SC-B67), UniProt Q5J463)
Beta-lactamase [3] = molecular target: Beta-lactamase (Pseudomonas aeruginosa, UniProt Q79MP6);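 also: biochemical dose-response test of metallo-beta-lactamase enzyme inhibition, read out by epi-absorbance; purified recombinant IMP-1 metallo-beta-lactamase with nitrocefin as substrate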
[4] = molecular target: G-protein coupled receptor 35 (Homo sapiens, UniProt Q9HC97); test: GPR35 antagonists blocking zaprinast-driven arrestin recruitment, primary screen, imaging, U2OS, beta-arrestin-GFP, zaprinast agonist (AID 2058); format: functional;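 also: antagonist potency meaning inhibition of agonist-induced arrestin redistribution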
[5] = enhancers of respiration in Yfh1-depleted yeast, dose response, Friedreich's ataxia, plus single-dose screen (AID 1465); format: functional;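 also: yeast depleted of Yfh1p frataxin homolog grown on glycerol needing respiration; WST-1 tetrazolium dye reduction as measure of cellular dehydrogenase metabolic activity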
[6] = molecular target: T3, Tyrosine-protein phosphatase non-receptor type 7 (Homo sapiens, UniProt P35236); format: functional
T3 sequence (P35236 whole entry): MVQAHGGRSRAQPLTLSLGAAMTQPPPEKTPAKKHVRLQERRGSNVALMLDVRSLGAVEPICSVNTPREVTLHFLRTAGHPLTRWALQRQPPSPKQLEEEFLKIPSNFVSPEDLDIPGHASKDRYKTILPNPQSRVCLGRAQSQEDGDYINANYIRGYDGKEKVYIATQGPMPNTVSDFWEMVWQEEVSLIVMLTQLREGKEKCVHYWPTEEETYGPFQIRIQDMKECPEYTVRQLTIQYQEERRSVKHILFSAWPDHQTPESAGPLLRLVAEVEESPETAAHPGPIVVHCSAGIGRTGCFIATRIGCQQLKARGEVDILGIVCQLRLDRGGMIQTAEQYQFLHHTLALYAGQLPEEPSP

[7] = molecular target: T4, Dual specificity protein phosphatase 6 (Rattus norvegicus, UniProt Q64346)
T4 sequence (Q64346 whole entry): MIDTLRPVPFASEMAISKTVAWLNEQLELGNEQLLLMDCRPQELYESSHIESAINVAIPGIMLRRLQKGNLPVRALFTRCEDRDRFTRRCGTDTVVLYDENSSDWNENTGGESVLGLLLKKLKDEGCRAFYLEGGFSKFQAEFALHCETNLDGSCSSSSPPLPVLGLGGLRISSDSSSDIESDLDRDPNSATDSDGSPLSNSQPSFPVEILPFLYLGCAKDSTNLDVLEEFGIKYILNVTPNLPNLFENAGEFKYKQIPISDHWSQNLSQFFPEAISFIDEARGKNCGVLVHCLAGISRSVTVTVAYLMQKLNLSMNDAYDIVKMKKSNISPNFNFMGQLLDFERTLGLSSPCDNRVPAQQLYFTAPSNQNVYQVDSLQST

[8] = molecular target: T4, Dual specificity protein phosphatase 6; format: functional
[9] = molecular target: Glyceraldehyde-3-phosphate dehydrogenase (Homo sapiens, UniProt P04406)
Protein Rev [10] = molecular target: Protein Rev (Human immunodeficiency virus type 1 group M subtype B (isolate HXB2)(HIV-1), UniProt P04618); test: inhibitors of Rev binding to RRE RNA, dose response, biochemical, fluorescence polarization, HIV-1 (AID 434976); set-up: species or system Human immunodeficiency virus 1
[11] = molecular target: T5, Polyadenylate-binding protein 1 (Homo sapiens, UniProt P11940); test: PABP1 MLLE–PAM2 interaction inhibitors, dose response, miRNA deadenylation inhibitor project, biochemical, fluorescence polarization, Cy5-PAM2 peptide, secondary (AID 602260); format: functional; details: read-out: IC50_Mean
[12] = molecular target: T5, Polyadenylate-binding protein 1; test: PABP1 MLLE–PAM2 binding inhibitor potency, dose response, biochemical, fluorescence polarization, FITC-PAM2 peptide (AID 602259); format: functional; details: read-out: IC50_Mean
[13] = molecular target: Female germline-specific tumor suppressor gld-1 (Caenorhabditis elegans, UniProt Q17339); test: inhibitors of GLD-1 binding to TGE RNA, dose response, biochemical, fluorescence polarization, C. elegans (AID 2802);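 also: fluorescence polarization of labeled TGE RNA bound by purified gld-1 protein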
Protein Rev [14] = molecular target: Protein Rev (Human immunodeficiency virus type 1 group M subtype B (isolate WMJ22)(HIV-1), UniProt P05866); test: HIV-1 Rev-RRE RNA binding disruptors, dose response, biochemical, protein-RNA interaction (AID 842); set-up: species or system Human immunodeficiency virus 1
Staphylococcus aureus = test: Inhibitors of Bacterial Quorum Sensing Structure Activity Relationship (SAR) Analysis: Dose Response Assay. [Related pubchem assays: 700, 527 ]; format: functional, organism-based
[15] = molecular target: Melanin-concentrating hormone receptor 1 (Homo sapiens, UniProt Q99705); test: Late-stage fluorescence-based counterscreen for antagonists of the G-protein coupled receptor 7 (GPR7): cell-based dose response assay to identify antagonists of the melanin-concentrating hormone receptor 1 (MCHR1). [Related pubchem assays (depositor defined):AID1861, AID1880, AID1952, AID2148, AID2251, AID2257, AID485339]; format: functional;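 also: stimulated with 30 nM MCH peptide agonist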
[16] = molecular target: Nucleotide-binding oligomerization domain-containing protein 1 (Homo sapiens, UniProt Q9Y239); test: NOD1 signaling inhibitors, SAR follow-up, revised (AID 2333); format: functional
HEK293 = test: cells; details: Homo sapiens
Tumor necrosis factor = Tumor necrosis factor (Homo sapiens, UniProt P01375); test: TNFa-triggered NF-kB activation inhibitors, SAR follow-up, cell-based, revised (AID 2337); format: functional
[17] = molecular target: Nucleotide-binding oligomerization domain-containing protein 2 (Homo sapiens, UniProt Q9HC29); test: PubChem AID 2334; format: functional
[18] = molecular target: Neurotensin receptor type 1 (Homo sapiens, UniProt P30989); format: functional;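 also: Image-based confirmatory dose-response assay measuring agonist activity at NTR1; NTR1-expressing U2OS osteosarcoma cells imaged for beta-arrestin GFP spot formation; agonist potency where compounds increase beta-arrestin recruitment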
[19] = Luminescence Cell-Based Dose Retest to Confirm Inhibitors of Cancer Stem Cells. [Related pubchem assays (depositor defined):AID2717, AID2721]; format: functional; details: Homo sapiens
INS1 = test: beta cell apoptosis inhibitors, cytokine rescue, dose response, luminescence, retest (AID 449756); format: functional, cell-based; details: Rattus norvegicus;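 also: cell death triggered by IL-1 beta plus TNF-alpha plus IFN-gamma mixture; protective hits raise ATP signal compared with cytokine alone wells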

T5 sequence (P11940 whole entry): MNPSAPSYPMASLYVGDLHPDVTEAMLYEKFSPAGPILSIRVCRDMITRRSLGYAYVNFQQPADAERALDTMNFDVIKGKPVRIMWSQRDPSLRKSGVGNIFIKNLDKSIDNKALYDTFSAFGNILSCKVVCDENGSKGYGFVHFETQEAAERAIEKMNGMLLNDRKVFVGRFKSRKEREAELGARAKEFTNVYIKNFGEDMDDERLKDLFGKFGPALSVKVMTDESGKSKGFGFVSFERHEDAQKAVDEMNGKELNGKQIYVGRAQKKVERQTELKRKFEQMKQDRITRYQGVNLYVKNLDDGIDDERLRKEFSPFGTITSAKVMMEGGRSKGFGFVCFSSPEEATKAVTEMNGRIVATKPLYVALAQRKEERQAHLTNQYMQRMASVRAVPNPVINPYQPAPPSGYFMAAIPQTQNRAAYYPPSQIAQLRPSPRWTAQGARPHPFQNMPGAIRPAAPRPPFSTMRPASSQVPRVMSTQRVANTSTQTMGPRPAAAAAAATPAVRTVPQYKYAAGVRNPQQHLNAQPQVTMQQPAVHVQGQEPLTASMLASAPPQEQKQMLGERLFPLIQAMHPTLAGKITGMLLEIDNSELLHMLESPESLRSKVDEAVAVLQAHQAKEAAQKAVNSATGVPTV
Sequence of Beta-lactamase (Salmonella choleraesuis (strain SC-B67), UniProt Q5J463) (Q5J463 whole entry): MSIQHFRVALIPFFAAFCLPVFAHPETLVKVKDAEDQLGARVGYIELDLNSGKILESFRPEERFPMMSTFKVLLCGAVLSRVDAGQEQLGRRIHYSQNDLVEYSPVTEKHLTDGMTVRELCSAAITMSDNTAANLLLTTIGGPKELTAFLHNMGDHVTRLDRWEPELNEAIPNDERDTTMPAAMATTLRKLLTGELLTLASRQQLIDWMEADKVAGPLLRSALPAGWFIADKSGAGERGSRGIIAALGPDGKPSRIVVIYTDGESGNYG
Sequence of Protein Rev (Human immunodeficiency virus type 1 group M subtype B (isolate WMJ22)(HIV-1), UniProt P05866) (P05866 whole entry): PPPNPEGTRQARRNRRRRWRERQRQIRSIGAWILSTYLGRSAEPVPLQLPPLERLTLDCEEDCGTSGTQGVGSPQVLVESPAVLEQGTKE
Sequence of Nucleotide-binding oligomerization domain-containing protein 1 (Q9Y239 whole entry, the tested form may be a part): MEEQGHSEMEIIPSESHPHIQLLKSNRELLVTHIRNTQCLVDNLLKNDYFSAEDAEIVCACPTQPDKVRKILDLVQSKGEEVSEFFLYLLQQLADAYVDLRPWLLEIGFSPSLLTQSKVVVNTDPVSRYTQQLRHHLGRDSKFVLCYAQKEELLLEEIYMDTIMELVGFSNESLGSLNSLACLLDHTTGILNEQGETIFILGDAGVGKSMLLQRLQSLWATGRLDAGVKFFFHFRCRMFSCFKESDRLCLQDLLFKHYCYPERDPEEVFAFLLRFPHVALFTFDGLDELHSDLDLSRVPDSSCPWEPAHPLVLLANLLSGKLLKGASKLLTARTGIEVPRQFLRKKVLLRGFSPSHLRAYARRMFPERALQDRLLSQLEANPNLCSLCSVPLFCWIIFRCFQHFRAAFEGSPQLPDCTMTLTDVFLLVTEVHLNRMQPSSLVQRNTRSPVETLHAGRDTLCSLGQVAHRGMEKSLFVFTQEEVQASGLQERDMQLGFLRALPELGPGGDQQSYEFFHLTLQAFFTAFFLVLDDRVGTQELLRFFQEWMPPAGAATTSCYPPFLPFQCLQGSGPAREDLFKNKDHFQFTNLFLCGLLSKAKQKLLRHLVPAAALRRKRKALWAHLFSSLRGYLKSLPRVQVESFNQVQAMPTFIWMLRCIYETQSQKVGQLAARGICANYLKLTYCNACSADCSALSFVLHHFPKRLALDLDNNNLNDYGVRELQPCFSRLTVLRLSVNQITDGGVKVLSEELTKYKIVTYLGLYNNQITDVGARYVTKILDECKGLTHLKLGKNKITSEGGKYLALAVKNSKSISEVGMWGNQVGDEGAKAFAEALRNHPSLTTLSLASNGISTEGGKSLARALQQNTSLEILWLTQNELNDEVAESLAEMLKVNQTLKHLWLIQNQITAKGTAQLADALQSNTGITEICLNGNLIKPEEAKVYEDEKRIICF
Sequence of Female germline-specific tumor suppressor gld-1 (Q17339 whole entry): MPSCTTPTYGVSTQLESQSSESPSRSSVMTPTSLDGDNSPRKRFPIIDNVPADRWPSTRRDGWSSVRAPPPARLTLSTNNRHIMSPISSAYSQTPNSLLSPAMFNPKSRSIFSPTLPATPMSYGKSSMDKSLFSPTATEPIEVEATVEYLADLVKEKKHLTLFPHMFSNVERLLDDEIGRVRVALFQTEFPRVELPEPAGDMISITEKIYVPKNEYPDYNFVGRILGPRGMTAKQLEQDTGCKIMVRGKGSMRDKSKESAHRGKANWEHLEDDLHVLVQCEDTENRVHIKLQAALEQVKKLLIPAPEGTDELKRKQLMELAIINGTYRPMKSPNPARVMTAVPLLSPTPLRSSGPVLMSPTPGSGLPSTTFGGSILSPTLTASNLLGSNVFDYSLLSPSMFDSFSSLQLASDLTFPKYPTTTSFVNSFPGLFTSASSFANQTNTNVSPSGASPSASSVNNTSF
Sequence of Neurotensin receptor type 1 (P30989 whole entry): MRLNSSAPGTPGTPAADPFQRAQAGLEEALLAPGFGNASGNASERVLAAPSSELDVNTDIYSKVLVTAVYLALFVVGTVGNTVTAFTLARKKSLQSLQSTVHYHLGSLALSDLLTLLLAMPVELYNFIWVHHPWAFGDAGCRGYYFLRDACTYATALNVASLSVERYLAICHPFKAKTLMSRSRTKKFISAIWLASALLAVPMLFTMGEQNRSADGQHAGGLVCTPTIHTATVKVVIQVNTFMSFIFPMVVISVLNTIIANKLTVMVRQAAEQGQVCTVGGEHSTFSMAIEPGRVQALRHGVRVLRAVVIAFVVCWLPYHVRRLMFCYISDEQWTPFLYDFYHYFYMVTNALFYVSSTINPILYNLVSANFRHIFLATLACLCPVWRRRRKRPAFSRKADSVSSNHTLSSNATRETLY
Sequence of G-protein coupled receptor 35 (Q9HC97 whole entry): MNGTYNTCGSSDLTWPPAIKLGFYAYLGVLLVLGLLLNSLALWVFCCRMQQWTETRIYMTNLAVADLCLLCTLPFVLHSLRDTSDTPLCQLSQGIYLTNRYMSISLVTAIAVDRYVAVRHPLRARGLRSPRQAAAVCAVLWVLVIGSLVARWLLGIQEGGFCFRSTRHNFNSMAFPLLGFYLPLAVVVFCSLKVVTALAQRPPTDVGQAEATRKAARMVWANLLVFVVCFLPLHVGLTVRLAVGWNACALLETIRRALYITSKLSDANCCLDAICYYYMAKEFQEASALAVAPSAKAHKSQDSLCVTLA
Sequence of Melanin-concentrating hormone receptor 1 (Q99705 whole entry, the tested form may be a part): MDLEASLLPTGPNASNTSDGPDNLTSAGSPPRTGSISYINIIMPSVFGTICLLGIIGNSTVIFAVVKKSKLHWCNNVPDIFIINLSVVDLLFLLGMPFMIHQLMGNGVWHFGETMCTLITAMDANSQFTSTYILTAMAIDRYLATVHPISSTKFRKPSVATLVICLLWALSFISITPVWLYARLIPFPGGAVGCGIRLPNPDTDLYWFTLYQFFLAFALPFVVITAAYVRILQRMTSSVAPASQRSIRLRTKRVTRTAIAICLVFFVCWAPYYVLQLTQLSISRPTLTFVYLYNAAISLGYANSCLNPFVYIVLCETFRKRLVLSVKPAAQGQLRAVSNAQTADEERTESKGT
Sequence of Beta-lactamase (Pseudomonas aeruginosa, UniProt Q79MP6) (Q79MP6 whole entry): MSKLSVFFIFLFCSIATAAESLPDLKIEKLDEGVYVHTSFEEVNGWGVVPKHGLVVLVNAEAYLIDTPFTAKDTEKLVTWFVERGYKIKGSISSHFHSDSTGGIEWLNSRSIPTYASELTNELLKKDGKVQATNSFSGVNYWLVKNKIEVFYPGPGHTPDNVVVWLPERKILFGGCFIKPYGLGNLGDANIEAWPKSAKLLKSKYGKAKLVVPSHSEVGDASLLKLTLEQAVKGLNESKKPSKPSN
Sequence of Protein Rev (Human immunodeficiency virus type 1 group M subtype B (isolate HXB2)(HIV-1), UniProt P04618) (P04618 whole entry): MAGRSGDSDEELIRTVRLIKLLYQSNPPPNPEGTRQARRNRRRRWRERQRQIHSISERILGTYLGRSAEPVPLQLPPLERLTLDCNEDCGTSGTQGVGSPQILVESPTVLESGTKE
Sequence of Glyceraldehyde-3-phosphate dehydrogenase (P04406 whole entry): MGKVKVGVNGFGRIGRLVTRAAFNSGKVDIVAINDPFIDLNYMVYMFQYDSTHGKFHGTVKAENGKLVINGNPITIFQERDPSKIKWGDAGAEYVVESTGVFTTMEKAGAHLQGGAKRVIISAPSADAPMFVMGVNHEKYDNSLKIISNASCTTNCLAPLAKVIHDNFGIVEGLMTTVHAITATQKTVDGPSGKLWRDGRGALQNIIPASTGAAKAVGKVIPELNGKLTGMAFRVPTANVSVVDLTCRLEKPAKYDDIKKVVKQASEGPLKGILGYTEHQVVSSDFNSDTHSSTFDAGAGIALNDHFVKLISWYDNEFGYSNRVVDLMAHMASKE
Sequence of Tumor necrosis factor (P01375 whole entry, the tested form may be a part): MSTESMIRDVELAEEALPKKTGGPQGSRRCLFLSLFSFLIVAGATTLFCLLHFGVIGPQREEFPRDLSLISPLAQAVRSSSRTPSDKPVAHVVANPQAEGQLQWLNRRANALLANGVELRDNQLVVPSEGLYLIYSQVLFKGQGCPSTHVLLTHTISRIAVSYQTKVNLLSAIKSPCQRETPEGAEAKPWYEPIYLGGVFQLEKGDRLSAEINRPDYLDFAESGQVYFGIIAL

## CN1CCN(C2=CC3=CC(=C(C#N)C#N)CCC3CC2)CC1 (centres undefined)
Leucine aminopeptidase
  IC50: 100 µM (active)
[1]
  IC50: 13.9 µM (not active)
Beta-lactamase [2]
  IC50: 2.28 µM (active)
Beta-lactamase [3]
  IC50: 3.5 µM (active)
[4]
  IC50: 2.76 µM (active)
[5]
  EC50: > 100 µM (active)

## Cn1c(SCC(=O)O)nc2sc3c(c2c1=O)CCC3
[6]
  IC50: > 100 µM (not active)
[7]
  IC50: > 100 µM (inactive)
[8]
  IC50: > 100 µM (inactive)
[9]
  IC50: > 100 µM (not active)

## COc1ccc2nc(N3CCCCC3)c(C#N)cc2c1
Protein Rev [10]
  IC50: 14.8 µM (not active)
[11]
  IC50: > 66 µM (inactive)
[12]
  IC50: 18.5 µM (active)
[13]
  IC50: 6.28 µM (active)

## COc1cccc(Nc2nc(N)nc(-c3oc4ccccc4c3C)n2)c1
Protein Rev [14]
  IC50: > 79.4 µM (not active)

## CC(=O)c1cc2c(cc1NC(=O)CN1CCN(C(c3ccccc3)c3ccccc3)CC1)OCO2
Staphylococcus aureus
  IC50: 1.51 µM (active)

## COc1ccc(Oc2c(Cl)cnn(-c3ccc(C(C)C)c(C)c3)c2=O)cc1
[15]
  IC50: 2 µM (active)

## N#Cc1ccc(C(=O)Nc2nc3ccccc3n2Cc2ccc(Cl)cc2)cc1
[16]
  IC50: > 20 µM (inactive)
HEK293
  IC50: > 20 µM (inactive)
Tumor necrosis factor
  IC50: > 20 µM (inactive)
[17]
  IC50: > 20 µM (inactive)

## COc1cc(OC)c2cc(C(=O)N/N=C/c3cccc(OC)c3O)[nH]c2c1
[18]
  EC50: 19.3 µM (active)
[19]
  AC50: 3.97 µM (active)
INS1
  AC50: 3.8 µM (active)
